Legend:
[1] = target: human CYP11B2 (Homo sapiens (Human), UniProt P19099); assay: G-402 cellular enzyme assay, human CYP11B2 (aldosterone release); assay type: cell-based; details: G-402 cells, 1 μM Deoxycorticosterone
Text: (§1) Herein we identified the use of the G-402 cell line as a host cell to ectopically express (transiently or stably) enzymes of the CYP11 family. Specifically we developed stable G-402 cells expressing ectopically human CYP11B1, human CYP11B2, human CYP11A1, cynmolgus CYP11B1 or cynomolgus CYP11B2 enzyme activity. Importantly the identified cell line G-402 expresses co-factors (adrenodoxin and adrenodoxin reductase) important for the activity of the CYP11 family and no relevant enzyme activity of the CYP11 family (in comparison to H295R cells) was detected in these cells. Therefore the G-402 cell line is uniquely suited as a host cell for the ectopic expression of enzymes from the CYP11 family. G-402 cells can be obtained from ATCC (CRL-1440) and were originally derived from a renal leiomyoblastoma.
(§2) The expression plasmids contains the ORF for either human/cyno CYP11B1 or CYP11B2 under the control of a suitable promoter (CMV-promoter) and a suitable resistance marker (neomycin). Using standard techniques the expression plasmid is transfected into G-402 cells and these cells are then selected for expressing the given resistance markers. Individual cell-clones are then selected and assessed for displaying the desired enzymatic activity using 11-Deoxycorticosterone (Cyp11B2) or 11-Deoxycortisol (Cyp11B1) as a substrate.
(§3) G-402 cells expressing CYP11 constructs were established as described above and maintained in McCoy's 5a Medium Modified, ATCC Catalog No. 30-2007 containing 10% FCS and 400 μg/ml G418 (Geneticin) at 37° C. under an atmosphere of 5% CO2/95% air. Cellular enzyme assays were performed in DMEM/F12 medium containing 2.5% charcoal treated FCS and appropriate concentration of substrate (0.3-10 uM 11-Deoxycorticosterone, 11-Deoxycortisol or Corticosterone). For assaying enzymatic activity, cells were plated onto 96 well plates and incubated for 16 h. An aliquot of the supernatant is then transferred and analyzed for the concentration of the expected product (Aldosterone for CYP11B2; Cortisol for CYP11B1). The concentrations of these steroids can be determined using HTRF assays from CisBio analyzing either Aldosterone or Cortisol.
(§4) Inhibition of the release of produced steroids can be used as a measure of the respective enzyme inhibition by test compounds added during the cellular enzyme assay. The dose dependent inhibition of enzymatic activity by a compound is calculated by means of plotting added inhibitor concentrations (x-axes) vs. measured steroid/product level (y-axes). The inhibition is then calculated by fitting the following 4-parameter sigmoidal function (Morgan-Mercer-Flodin (MMF) model) to the raw data points using the least squares method:
(§5) [formula] wherein, A is the maximum y value, B is the EC50 factor determined using XLFit, C is the minimum y value and D is the slope value.
(§6) EC50 values for compounds claimed herein were tested with the G402-based assay system described. Cyp11B2 enzyme activity was tested in presence of 1 μM Deoxycorticosterone and variable amounts of inhibitors; Cyp11B1 enzyme activity was tested in presence of 1 μM Deoxycortisol and variable amounts of inhibitors.

[2] = target: human CYP11B1 (Homo sapiens (Human), UniProt P15538); assay: G-402 cellular enzyme assay, human CYP11B1 (cortisol release); assay type: cell-based; details: G-402 cells, 1 μM Deoxycortisol
human CYP11B1, sequence (P15538 25-503): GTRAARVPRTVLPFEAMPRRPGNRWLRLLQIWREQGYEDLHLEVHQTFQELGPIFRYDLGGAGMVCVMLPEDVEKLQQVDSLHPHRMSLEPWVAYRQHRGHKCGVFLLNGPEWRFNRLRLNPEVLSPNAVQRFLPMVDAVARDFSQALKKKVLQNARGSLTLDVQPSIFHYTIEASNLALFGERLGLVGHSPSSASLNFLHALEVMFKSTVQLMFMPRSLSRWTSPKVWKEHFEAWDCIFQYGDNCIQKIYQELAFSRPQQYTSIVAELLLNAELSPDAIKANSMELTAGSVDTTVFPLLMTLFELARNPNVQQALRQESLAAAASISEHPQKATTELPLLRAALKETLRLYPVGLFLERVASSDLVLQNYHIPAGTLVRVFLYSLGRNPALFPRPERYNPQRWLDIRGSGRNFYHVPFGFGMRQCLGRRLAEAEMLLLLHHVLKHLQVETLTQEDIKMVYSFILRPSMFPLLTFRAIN
Text: as §1, §2, §3, §4, §5, §6

human CYP11B2, sequence (P19099 25-503): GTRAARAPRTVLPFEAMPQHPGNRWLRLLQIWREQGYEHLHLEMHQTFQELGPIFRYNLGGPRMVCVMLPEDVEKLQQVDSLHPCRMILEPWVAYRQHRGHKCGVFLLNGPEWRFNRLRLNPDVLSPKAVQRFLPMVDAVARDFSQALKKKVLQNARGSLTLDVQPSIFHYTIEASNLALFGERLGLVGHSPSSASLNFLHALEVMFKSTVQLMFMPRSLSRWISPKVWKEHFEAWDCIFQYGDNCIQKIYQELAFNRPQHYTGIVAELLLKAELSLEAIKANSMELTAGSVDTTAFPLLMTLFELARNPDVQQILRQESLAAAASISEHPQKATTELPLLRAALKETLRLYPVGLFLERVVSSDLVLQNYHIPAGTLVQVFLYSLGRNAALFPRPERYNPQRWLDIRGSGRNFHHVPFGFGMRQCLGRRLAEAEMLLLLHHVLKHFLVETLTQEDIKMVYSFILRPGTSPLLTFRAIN

Row | SMILES | EC50 [1] [nM] | EC50 [2] [nM]
1 | CN(C)C(=O)CC1CCc2c(-c3ccc(C(F)(F)F)cc3F)cncc21 (racemic) [Example 13, (rac)-2-[4-[2-Fluoro-4-(trifluoromethyl)phenyl]-6,7-dihydro-5H-cyclopenta[c]pyridin-7-yl]-N,N-dimethyl-acetamide] | 67 | 9370
2 | CCN(C)C(=O)CC1CCc2c(-c3ccc(C(F)(F)F)cc3F)cncc21 (racemic) [Example 14, (rac)-N-Ethyl-2-[4-[2-fluoro-4-(trifluoromethyl)phenyl]-6,7-dihydro-5H-cyclopenta[c]pyridin-7-yl]-N-methyl-acetamide] | 44 | 2120
3 | CC(C)N(C)C(=O)CC1CCc2c(-c3ccc(C(F)(F)F)cc3F)cncc21 (racemic) [Example 15, (rac)-2-[4-[2-Fluoro-4-(trifluoromethyl)phenyl]-6,7-dihydro-5H-cyclopenta[c]pyridin-7-yl]-N-isopropyl-N-methyl-acetamide] | 18 | 1310
4 | CN(C(=O)CC1CCc2c(-c3ccc(C(F)(F)F)cc3F)cncc21)C1CC1 (racemic) [Example 16, (rac)-N-Cyclopropyl-2-[4-[2-fluoro-4-(trifluoromethyl)phenyl]-6,7-dihydro-5H-cyclopenta[c]pyridin-7-yl]-N-methyl-acetamide] | 6 | 211
5 | CCN(C(=O)CC1CCc2c(-c3ccc(C(F)(F)F)cc3F)cncc21)C1CC1 (racemic) [Example 17, (rac)-N-Cyclopropyl-N-ethyl-2-[4-[2-fluoro-4-(trifluoromethyl)phenyl]-6,7-dihydro-5H-cyclopenta[c]pyridin-7-yl]acetamide] | 29 | 745
6 | O=C(CC1CCc2c(-c3ccc(C(F)(F)F)cc3F)cncc21)N1CCC1 (racemic) [Example 18, (rac)-1-(Azetidin-1-yl)-2-[4-[2-fluoro-4-(trifluoromethyl)phenyl]-6,7-dihydro-5H-cyclopenta[c]pyridin-7-yl]ethanone] | 48 | 2680
7 | O=C(CC1CCc2c(-c3ccc(C(F)(F)F)cc3F)cncc21)N1CC(CO)C1 (racemic) [Example 19, (rac)-2-[4-[2-Fluoro-4-(trifluoromethyl)phenyl]-6,7-dihydro-5H-cyclopenta[c]pyridin-7-yl]-1-[3-(hydroxymethyl)azetidin-1-yl]ethanone] | 45 | 1160
8 | COC1CN(C(=O)CC2CCc3c(-c4ccc(C(F)(F)F)cc4F)cncc32)C1 (racemic) [Example 20, (rac)-2-[4-[2-Fluoro-4-(trifluoromethyl)phenyl]-6,7-dihydro-5H-cyclopenta[c]pyridin-7-yl]-1-(3-methoxyazetidin-1-yl)ethanone] | 53 | 1490
9 | O=C(CC1CCc2c(-c3ccc(C(F)(F)F)cc3F)cncc21)N1CCCC1 (racemic) [Example 21, (rac)-2-[4-[2-Fluoro-4-(trifluoromethyl)phenyl]-6,7-dihydro-5H-cyclopenta[c]pyridin-7-yl]-1-pyrrolidin-1-yl-ethanone] | 12 | 507
10 | C[C@H]1CCCN1C(=O)CC1CCc2c(-c3ccc(C(F)(F)F)cc3F)cncc21 (mixture of isomers) [Example 22, (rac)-2-[4-[2-Fluoro-4-(trifluoromethyl)phenyl]-6,7-dihydro-5H-cyclopenta[c]pyridin-7-yl]-1-[(2S)-2-methylpyrrolidin-1-yl]ethanone] | 6 | 278
11 | OCCC1CCCc2c(-c3ccc(C(F)(F)F)cc3F)cncc21 (racemic) [Example 24, (rac)-2-[4-[2-Fluoro-4-(trifluoromethyl)phenyl]-5,6,7,8-tetrahydroisoquinolin-8-yl]ethanol] | 5 | 85
12 | CNC(=O)CC1CCCc2c(-c3ccc(C(F)(F)F)cc3F)cncc21 (racemic) [Example 25, (rac)-2-[4-[2-Fluoro-4-(trifluoromethyl)phenyl]-5,6,7,8-tetrahydroisoquinolin-8-yl]-N-methyl-acetamide] | 11 | 1040

The remaining lines, values ahead:

Row | EC50 [1] [nM] | EC50 [2] [nM] | SMILES
13 | 9 | 84 | CCOC(=O)CC1CCc2c(-c3ccc(C(F)(F)F)c(F)c3)cncc21 (racemic) [Example 1, (rac)-Ethyl 2-[4-[3-fluoro-4-(trifluoromethyl)phenyl]-6,7-dihydro-5H-cyclopenta[c]pyridin-7-yl]acetate]
14 | 17 | 199 | CNC(=O)CC1CCc2c(-c3ccc(C(F)(F)F)c(F)c3)cncc21 (racemic) [Example 2, (rac)-2-[4-[3-Fluoro-4-(trifluoromethyl)phenyl]-6,7-dihydro-5H-cyclopenta[c]pyridin-7-yl]-N-methyl-acetamide]
15 | 13 | 69 | CCNC(=O)CC1CCc2c(-c3ccc(C(F)(F)F)c(F)c3)cncc21 (racemic) [Example 3, (rac)-2-[4-[3-Fluoro-4-(trifluoromethyl)phenyl]-6,7-dihydro-5H-cyclopenta[c]pyridin-7-yl]-N-ethyl-acetamide]
16 | 21 | 112 | CCCNC(=O)CC1CCc2c(-c3ccc(C(F)(F)F)c(F)c3)cncc21 (racemic) [Example 4, (rac)-2-[4-[3-Fluoro-4-(trifluoromethyl)phenyl]-6,7-dihydro-5H-cyclopenta[c]pyridin-7-yl]-N-propyl-acetamide]
17 | 13 | 217 | O=C(CC1CCc2c(-c3ccc(C(F)(F)F)c(F)c3)cncc21)NC1CC1 (racemic) [Example 5, (rac)-N-Cyclopropyl-2-[4-[3-fluoro-4-(trifluoromethyl)phenyl]-6,7-dihydro-5H-cyclopenta[c]pyridin-7-yl]acetamide]
18 | 24 | 331 | O=C(CC1CCc2c(-c3ccc(C(F)(F)F)c(F)c3)cncc21)NCC1CC1 (racemic) [Example 6, (rac)-N-(Cyclopropylmethyl)-2-[4-[3-fluoro-4-(trifluoromethyl)phenyl]-6,7-dihydro-5H-cyclopenta[c]pyridin-7-yl]acetamide]
19 | 32 | 582 | COCCNC(=O)CC1CCc2c(-c3ccc(C(F)(F)F)c(F)c3)cncc21 (racemic) [Example 7, (rac)-2-[4-[3-Fluoro-4-(trifluoromethyl)phenyl]-6,7-dihydro-5H-cyclopenta[c]pyridin-7-yl]-N-(2-methoxyethyl)acetamide]
20 | 2 | 10 | O=C(CC1CCc2c(-c3ccc(C(F)(F)F)c(F)c3)cncc21)N1CCCCC1 (racemic) [Example 8, (rac)-2-[4-[3-Fluoro-4-(trifluoromethyl)phenyl]-6,7-dihydro-5H-cyclopenta[c]pyridin-7-yl]-1-(1-piperidyl)ethanone]
21 | 20 | 152 | O=C(CC1CCc2c(-c3ccc(C(F)(F)F)c(F)c3)cncc21)N1CCOCC1 (racemic) [Example 9, (rac)-2-[4-[3-Fluoro-4-(trifluoromethyl)phenyl]-6,7-dihydro-5H-cyclopenta[c]pyridin-7-yl]-1-morpholino-ethanone]
22 | 17 | 180 | O=C(CC1CCc2c(-c3ccc(C(F)(F)F)c(F)c3)cncc21)Nc1ccon1 (racemic) [Example 10, (rac)-2-[4-[3-Fluoro-4-(trifluoromethyl)phenyl]-6,7-dihydro-5H-cyclopenta[c]pyridin-7-yl]-N-isoxazol-3-yl-acetamide]
23 | 8 | 30 | O=C(CC1CCc2c(-c3ccc(C(F)(F)F)c(F)c3)cncc21)Nc1cc[nH]n1 (racemic) [Example 11, (rac)-2-[4-[3-Fluoro-4-(trifluoromethyl)phenyl]-6,7-dihydro-5H-cyclopenta[c]pyridin-7-yl]-N-(1H-pyrazol-3-yl)acetamide]
24 | 27 | 1890 | CCOC(=O)CC1CCCc2c(-c3ccc(C(F)(F)F)cc3F)cncc21 (racemic) [Example 23, (rac)-Ethyl 2-[4-[2-fluoro-4-(trifluoromethyl)phenyl]-5,6,7,8-tetrahydroisoquinolin-8-yl]acetate]
